The NIST ThermoML archive (doi:10.1021/je700022b)

Details: Liquid; for viscosity: Falling or rolling sphere viscometry; for mass density: Constant-volume piezometry

CCCCn1cc[n+](C)c1.F[P-](F)(F)(F)(F)F [1-butyl-3-methylimidazolium hexafluorophosphate]
Details	mass density, 293.15 K [kg/m3]	mass density, 313.15 K [kg/m3]	mass density, 333.15 K [kg/m3]	mass density, 353.15 K [kg/m3]	viscosity, 293.15 K [mPa·s]	viscosity, 313.15 K [mPa·s]	viscosity, 333.15 K [mPa·s]	viscosity, 353.15 K [mPa·s]
100 kPa	–	–	–	–	395	–	–	–
15000 kPa	1377	1362	1346	1330	468	140	61	29.3
20000 kPa	1379	1364	1349	1332	504	151	63.2	30.5
